Results on 1 compound are retold here after US20090317376A1, “Compositions And Methods For Lipo Modeling” (Georgetown University MEDICAL SCHOOL, priority 2005, published 2009).

Entries after “also recorded” stand apart in the source; their conditions may differ.

The experiment is described as follows: Glucose tolerance test. Particulars: for response to glucose challenge / glucose intolerance: WT mice exposed to stress and high-fat diet, FIG. 18A. The experiment is classed as in vivo, mice. How it is done:
Glucose tolerance test: After an overnight 17 h fast, unanesthetized mice are injected i.p. with a dose of 1.5 g of 50% glucose solution per kg of body weight. Blood samples are obtained from the tail vein 30 min prior to the glucose challenge and then again at 0, 30, 60, 90 min after the glucose challenge. Blood glucose concentrations are measured with an Elite XL (Bayer) portable glucose meter.
1. Cell culture: 3T3-L1 preadipocyte cells, (gift from Dr. Lane,^34) were cultured in DMEM high glucose media with glutamine, 10% calf sera (Gemini Bioproducts), d-Biotin (8 μg/ml) and Pantothenate (8 μg/ml) (Sigma). SK-N-BE(2) neuroblastoma cells (ATCC) were cultured in EMEM/F12K with 10% fetal bovine sera (FBS). HMVEC endothelial cells (Cambrex) were cultured in endothelial cell growth media (Cambrex). All media was supplemented with 100 units/ml penicillin, 100 μg/ml streptomycin and […] amphotericin. 2. Proliferation assay: Cells were plated onto 96-well dishes, growth-arrested in serum-free media for 24 h, and then were treated with the desired factors for 24 h in the culture media supplemented with 0.25% FBS; 4 hr after treatment 0.5 μCi [^3H] thymidine was added to each well. After 24 h, cells were harvested in a 96-well harvester (Tomtec) and counted in a Betaplate Liquid Scintillation Counter (Wallac). 3. Co-culture: For mitogenic assay and expression studies, co-culture was performed in a Costar Transwell system. Cells were plated on 6-well plates or inserts with 0.4 μm Polyester membranes. At 30% confluence, the inserts were combined with wells containing other cells. […] After 48 hr, the cells were counted with a Beckman Coulter Counter. […] The results were analyzed using software provided by BioRad and expression levels calculated by the comparative CT method using β-actin as an endogenous reference gene, according to the Applied Biosystems' ABI PRISM 7700 User Bulletin #2. […] The density of TUNEL positive cells will be measured using NIH ImageJ software (using a plugin written by Wayne Rasband). […]

As for `N=C(N)NCCC[C@H](NC(=O)CC1(CC(=O)N2CCN(C3c4ccccc4NC(=O)c4ccccc43)CC2)CCCC1)C(=O)NCCn1c(=O)n(-c2ccccc2)n(-c2ccccc2)c1=O` (stereo partly drawn) [BIIE0246], the “response to glucose challenge / glucose intolerance” value is, setting by setting: (listed as Y2R antagonist) “resolved”; (listed as Y2 antagonist) “normalized glucose intolerance”. In addition, for the setting “ob/ob mice, FIG. 18B, listed as Y2R antagonist”, the “response to glucose challenge” value is on record as “near normal response to the challenge; also recorded: resolved”.
